According to patent US20220233523A1, “ANTIBIOTIC POTENTIATION FOR NONTUBERCULOUS MYCOBACTERIAL DISEASE” (priority 2019, published 2022):
“Also recorded” adds a separate entry of the source. Marks after values point to notes of the source that are not given here.

Key:
Type in all cases: cell-based, Mycobacterium avium subsp hominissuis 104 (MAH104)
[1] = tested on: intracellular MAH 104 in THP-1 macrophages; assay: Treatment of MAH inside human THP-1 macrophages with antibiotics and metabolites (CFU); details: for CFU/ml of macrophage lysate, 2 h: 2 h (baseline); for CFU/ml of macrophage lysate, 4 days: clarithromycin 16 μg/ml, amikacin 4 μg/ml, none 8.2 +/− 0.3 × 10^5
Procedure: Human THP-1 cell line (TIB-202) (American Type Culture Collection, Manassas, Va.) was cultivated in RPMI-1640 medium with 10% of heat-inactivated fetal bovine serum (FBS, GEMINI B10-PRODUCTS, Sacramento, Calif.), at 37° C. with 5% CO2. The THP-1 cells were maintained in 75 cm^2 tissue culture flasks. The differentiation of THP-1 monocytes into macrophages with PMA (phorbol 12-myristate 13-acetate) (SIGMA ALDRICH) and intracellular antibiotic killing assays were performed as previously described (Rojony et al., Clinical proteomics 2019; 16:39). […] As a negative control, differentiated THP-1 cells were incubated without any antibiotics and with no metabolites. THP-1 cells were replenished with new media containing antibiotics, or no antibiotic, every other day. Cells were lysed at 2 h (baseline) and day 4 and subsequently the number of viable bacteria was determined by CFU counting on 7H10 agar plates.

[2] = tested on: planktonic cultures of MAH104; assay: Growth of planktonic cultures in non-supplemented 7H9 with metabolites; details: propionic acid and butyric acid at 0.05%, glycerol 0.2%; 12 days at 37° C.
Procedure: MAH104 from 7H10 agar was used to make bacterial suspension in deionized water (10^9 CFU/ml) and then the suspension was centrifuged three times to wash the bacteria cells (3500 rpm for 20 minutes at 20° C.). After washing step, the bacterial suspensions were resuspended in 7H9 medium and suspensions were left alone to allow clumped bacteria to settle. The top half of the suspension was transferred to new tube and adjusted to 1×10^8 CFU/ml, using visual turbidity and optical density. […] These cultures were incubated at 37° C. for 12 days and the O.D.595 nm was measured at each 72 hours.
We determined the optimal concentration for the growth of MAH104 in non-supplemented 7H9 media since the amounts of these metabolites available in Biolog plates are unknown. […] The experiments were made in non-supplemented 7H9 medium (without any carbon sources: no OADC, no glycerol, and no tween 20 or 80) (FIG. 2A-C), which is the condition applied in the biofilms assay.

sessile MAH104 cells = assay: Growth and biofilm formation of pre-attached (sessile) cells in nutrient-limited media; details: for O.D.570 nm of sessile MAH104 (crystal violet, biofilm formation): 0.05% fatty acids in non-supplemented 7H9, 7 days, blank 0.091±0.007; for growth of sessile forms: 0.2% glycerol or 0.05% fatty acids in non-supplemented 7H9, 7 days at 37° C., O.D.595 nm
Procedure: (§1) Assays with biofilms incubated with propionic acid, butyric acid, and glycerol were performed to test whether these metabolites affect the formation of biofilms. All the experiments were made in non-supplemented 7H9. The effect of these metabolites was evaluated during biofilm formation, in pre-established biofilms and in M. avium cells pre-attached to polystyrene. To evaluate the effect of targeted metabolites during biofilm formation, mycobacteria suspensions were prepared and inoculated in 96 wells polystyrene plates, as already described, and biofilms were formed in the presence or not of the short-chain fatty acids at different concentrations (1%, 0.5%, 0.1%, 0.05% and 0.01%). For glycerol, only 0.2% was used. The biofilms were formed in 7H9 media at 37° C. for 7 days. For pre-established biofilms, MAH104 was again inoculated in 96 wells plates and biofilms were formed as described herein. […] It was also evaluated whether these metabolites could promote the growth of MAH104 cells present in biofilms through the measurement of […] every 24 hours. Finally, mycobacteria suspension with low density made in 7H9 broth (containing 1×10^6 bacteria/ml) were seeded in 96 wells polystyrene plates and incubated for 7 days at 37° C. […] The growth of pre-attached bacterial cells was followed every 24 hours through O.D.595 nm. The biofilm formation was evaluated by crystal violet.
Low mycobacterial cells density (10^6/ml) resuspended in non-supplemented 7H9 media were inoculated in 96-well plates and incubated for 7 days at 37° C. to allow the bacteria to attach into polystyrene. The supernatant was discarded to remove planktonic cells and pre-attached bacterium was incubated for 7 days in nutrient-limited media (non-supplemented 7H9). […] The growth of sessile mycobacteria was followed by O.D.595 nm measurement and biofilm formation was determined through crystal violet (O.D.570 nm), since the multiplication of bacteria cells is linked with the formation of biofilms. No growth was observed when sessile MAH104 cells were cultivated in non-supplemented 7H9 broth. […] It is also important to highlight that the O.D.570 nm value for sessile MAH104 forms incubated with non-supplemented 7H9 (O.D.570 nm=0.11±0.039) had no significant difference in comparison with the blank (O.D.570 nm=0.091±0.007) (P=0.37), showing no biofilm formation. […] FIG. 3A-D.

[3] = tested on: pre-established MAH104 biofilms; assay: Effect of metabolites on pre-established biofilms; details: for O.D.570 nm of pre-established biofilms (biofilm formation): 7 days at 37° C. with metabolite, 7H9 0.332±0.073
Procedure: as §1
Next, the effect of short-chain fatty acids and glycerol in pre-established biofilms was tested. In parallel, the O.D.595 nm of pre-established biofilm cultures were also measured for 7 days in order to check whether the bacterial cells in biofilm multiplied in the presence of the targeted substrates. […] In addition, we observed a significant increase in the biofilm formation (O.D.570 nm values) when mycobacteria biofilm was incubated with glycerol (7H9, O.D.570 nm=0.332±0.073; glycerol, O.D.570 nm=1.562±0.1751; P=0.0029).

[4] = tested on: M. avium 104 static biofilms; assay: Static biofilm formation in the presence of metabolites (crystal violet); details: for biofilm formation with 1% and 0.5% of fatty acid: 7H9, 7 days at 37° C., crystal violet
Procedure: Static biofilms were used in the present study as described previously (Rose S J, Bermudez L E., Infection and Immunity 2014; 82:405-12). Briefly, mycobacteria were taken from 7H10 agar plates and resuspended in deionized water (10^9 of colony forming units/ml; CFU/ml). The bacterial suspension was then washed 3 times with deionized water to remove any remaining of 7H10 media (3500 rpm for 20 minutes at 20° C.). After washing, the MAH104 were resuspended in 7H9 medium without any carbon sources (OADC, glycerol, tween 20 and tween 80) (non-supplemented 7H9) and suspensions were left alone to allow clumped bacteria to settle. The top half of the suspension was transferred to new tube and adjusted to 1×10^8 CFU/ml, using visual turbidity and optical density. Suspensions were inoculated in 96-well polystyrene plates (BD, Franklin Lakes, N.J.) (100 μl for each well [or 10^7 bacteria per well]) and biofilms were formed at 37° C. for 7 days or for 14 days when indicated. […] The raw O.D. at 570 nm values were discounted from O.D. 570 nm average of blank wells (wells with only 7H9 media).
as §1
The next step was to evaluate the capacity of tested substrates to promote the growth of mycobacteria cells that are present in biofilms. […] MAH 104 cells in the presence of non-supplemented 7H9 were used as a negative control. […]

Row | SMILES | CFU/ml of macrophage lysate, 2 h [1] | CFU/ml of macrophage lysate, 4 days [1] | growth of planktonic MAH104 in non-supplemented 7H9 [2] | O.D.570 nm of sessile MAH104 (crystal violet, biofilm formation) (sessile MAH104 cells) | growth of sessile forms (sessile MAH104 cells) | O.D.570 nm of pre-established biofilms (biofilm formation) [3] | biofilm formation with 1% and 0.5% of fatty acid [4] | O.D.595 nm of pre-established biofilm cultures ([3]; after 24 hours of culture, 7H9 media 0.452±0.049) | increase in biofilm formation in comparison with non-supplemented 7H9 ([4]; glycerol 0.2%, 7 days) [×] | bacterial killing by clarithromycin and amikacin in macrophages after co-treatment ([1]; THP1 macrophages)
1 | CCCC(=O)O [Butyric acid] | 2.0 +/− 0.4 × 10^5 CFU/ml | 8.4 +/− 0.5 × 10^5 CFU/ml | able to grow | 0.32±0.02 | supported the growth of sessile forms | 0.490±0.121 | same results; also recorded: significant decrease |  |  | 
2 | OCC(O)CO [Glycerol] | 3.1 +/− 0.4 × 10^5 CFU/ml | 2.0 +/− 0.5 × 10^5* (1) CFU/ml | able to support MAH104 growth |  | supported the growth of sessile forms | 1.562±0.1751 |  | 0.609±0.069 | 3.2 | 
3 | CCC(=O)O [Propionic acid] | 2.0 +/− 0.4 × 10^5 CFU/ml | 8.0 +/− 0.2 × 10^5 CFU/ml | able to grow | 0.25±0.01 | supported the growth of sessile forms | 0.3855±0.048 | unable to form biofilm; also recorded: significant decrease |  |  | increased significantly
